In article PMC11528066, “Noninvasive Monitoring of Programmed Death-Ligand 2 Expression with Positron Emission Tomography using ^68Ga-labeled Peptide Antagonist in Preclinical and Exploratory Human Studies” (Research, 2024):
Peptide text beside a SMILES is read from it. * marks the point of attachment. NOTA = O=C(O)CN1CCN(CC(=O)O)CCN(CC(=O)*)CC1; AEEEA = NCCOCCOCCOCC(=O)O

Assays:
[1] = Adult, PET/CT; cited from earlier work
Source text: The kidney received the highest doses (9.83 × 10^−2 ± 2.10 × 10^−2 mSv/MBq).

[2] = [^18F]F-FDG PET/CT imaging in cancer patients; type: in vivo, human
Description: The program content was explained to all healthy volunteers and cancer patients, and written informed consent was obtained. Whole-body dynamic imaging was conducted for 60 min using a PET/CT 690 Elite scanner (GE Discovery) immediately after intravenous injection of [^68Ga]Ga-HN11-1 (3.1 to 4.9 MBq/kg). A static body scan was performed 15 to 45 min after injection. All cancer patients underwent [^18F]F-FDG and [^68Ga]Ga-HN11-1 PET/CT imaging within 5 d. Two nuclear medicine physicians reconstructed and reviewed the images on GE aw 4.6 workstations and reached a consensus. They delineated the ROIs and measured the values of maximum standard uptake and average standard uptake (SUVmax and SUVmean). The biological distribution of [^68Ga]Ga-HN11-1 in healthy volunteers was determined by SUVmax and SUVmean. The OLINDA/EXM software (version 1.0, Hermes Medical Solutions AB) was used to estimate the human radiation dose based on the SUVmean of each organ.

[3] = system: A549-PD-L2 xenograft models; test: Static PET/CT imaging with blocking; type: in vivo, BALB/C nude mice; settings: 60 min, pretreatment i.v. with excess HN11-1 / HN11-2 (10 mg/kg), n = 3
Description: (§1) The static PET/CT imaging in A549 and A549-PD-L2 xenograft models after injection of 5.55 to 7.4 MBq (150 to 200 μCi) of [^68Ga]Ga-HN11-1 or [^68Ga]Ga-HN11-2 were acquired at 60 min. In the [^68Ga]Ga-HN11-1 + block or [^68Ga]Ga-HN11-2 + block groups, the xenograft models underwent pretreatment via intravenous injection of HN11-1 or HN-2 (10 mg/kg) before PET/CT imaging. Then, ROIs were delineated for each group. After imaging, tumor tissues from both the A549 and A459-PD-L2 xenograft tumors were extracted, and the PD-L2 expression was tested by IHC. For the pharmacokinetics study, healthy BALB/C mouse received an intravenous injection of 5.55 MBq (150 μCi) of [^68Ga]Ga-HN11-1 and [^68Ga]Ga-HN11-2. Measure the activity of blood samples (%ID/g, mean ± SD) at the corresponding time points, and the time-activity curve was plotted. Subsequently, pharmacokinetic parameters were tested using the noncompartmental model in Phoenix WinNonlin 8.1 software (Certara, USA).

A549-PD-L2 cell lines = test: Cell uptake assay; type: cell-based; settings: A549-PD-L2 cells, n = 5; for cell uptake rate: mean ± SD
Description: Cell uptake assays were conducted to measure the uptake of [^68Ga]Ga-HN11-1 and [^68Ga]Ga-HN11-2 in A549 and A459-PD-L2 cell lines following incubation periods of 15, 30, 60, and 90 min. Blocking studies were performed by coincubating cells with an excess of precursor (HN11-1 / HN11-2), and then the cell uptakes of [^68Ga]Ga-HN11-1 and [^68Ga]Ga-HN11-2 were performed in A459-PD-L2 cell lines after 60 min of incubation. The experiment details are provided in the SI.
All tumor cells (1 × 10^6 per well) were seeded in two 24 - well plates, incubated for 24 h and then added with […] of [^68Ga]Ga-HN11-1 or [^68Ga]Ga-HN11-2 per well. After 15, 30, 60 and 90 min of uptake, the cells were separated from the medium, washed with 500 μL of cold PBS for three times and dissolved with 1 M NaOH. At different time points, these cells were collected and counted by using a γ-counter (WIZARD 2480, Pekin Elmer). For in vitro blocking experiments, cells were co-incubated with 10 μg of cold HN11-1 or HN11-2 precursor. After incubation, the cells were washed, collected and measured with a γ-counter, either. The IC50 values of [^68Ga]Ga-HN11-1 or [^68Ga]Ga-HN11-2 were determined using GraphPad Prism 8.0.2 software, respectively.

[4] = In vitro stability in saline (radio-HPLC); type: physicochemical; settings: room temperature, over 4 h (0.5, 1, 2, 4 h), 3.74 MBq
Description: (§2) The in vitro stability of [^68Ga]Ga-HN11-1 and [^68Ga]Ga-HN11-2 (3.74 MBq) in saline and serum was tested by radio-HPLC analysis of its radiochemical purity after incubation at room temperature for 0.5 , 1 , 2 and 4 h.

[5] = In vitro stability in serum (radio-HPLC); type: in vitro ADME; settings: room temperature, over 4 h (0.5, 1, 2, 4 h), 3.74 MBq, read-out: in vitro stability in serum (radiochemical purity)
Description: as §2

[6] = Partition coefficient (log P), 1-octanol/PBS; type: physicochemical; settings: shake-flask 3 mL 1-octanol / 3 mL PBS pH 7.4, vortex 10 min, centrifugation 10,000 rpm 10 min, γ-counter, mean ± SD, n = 5
Description: The partition coefficients were assessed using the method described previously. [^68Ga]Ga-HN11-1 and [^68Ga]Ga-HN11-2 was respectively introduced into a mixture comprising 3 mL of 1-octanol and 3 mL of phosphate-buffered saline (PBS) with a pH of 7.4. Following vortexing for 10 minutes and subsequent centrifugation at 10,000 rpm for 10 minutes, samples were taken from both layers and counted using a γ-counter. The log P was determined using the formula: log P = log([M]oct/[M]aq). All measurements were conducted using 5 independent samples and are presented as mean ± standard deviation (SD).

[7] = system: A549-PD-L2 tumor xenograft models; test: Dynamic micro-PET imaging in A549-PD-L2 xenografts; type: in vivo, BALB/C nude mice; settings: n = 3
Description: Micro-PET imaging was conducted using an Inveon PET scanner (Siemens, Germany). Dynamic PET examine were acquired over the first 60 min following the simultaneous injection of 7.4 to 9.25 MBq (200 to 250 μCi) of [^68Ga]Ga-HN11-1 and [^68Ga]Ga-HN11-2. After reconstructing the images and delineating the regions of interest (ROIs), time-radioactivity curves were plotted to obtain the Tumor/Muscle (T/M) ratios. %ID/g represents the percentage of the injected dose of the radiotracer that accumulates in a specific tissue per gram of tissue weight. For the biodistribution study, the xenograft models received an intravenous injection of 3.7 to 5.5 MBq (100 to 150 μCi) of [^68Ga]Ga-HN11-1. After the designated period (10, 30, 60, and 90 min), the mice were euthanized, and important tissues and organs were dissected and collected. The samples were counted using the γ-counter for determining the %ID/g, presented as mean ± standard deviation (SD).
A549 cell lines were provided by the China Center for Type Culture Collection (CCTCC) and cultured in RPMI-1640 medium supplemented with 10 % fetal bovine serum and 100 U/mL penicillin-streptomycin. The lentivirus system was implemented to introduce PD-L2 (PDCD1LG2) over-expressed cDNA into the A549 cells. The viral vectors were produced in 293T cells and co-transfected with the psAX2, pMD2G and PD-L2 plasmids. A549 cells transduced with the vectors were selectively grown in 1.6 μg/mL puromycin. Transfection efficiency was identified by WB and real-time quantitative PCR. All the cells were cultured in an incubator at 37° C with 5 % CO2 atmosphere. A549 and A549-PD-L2 cells (5 × 10^6, 200 μL)were subcutaneously implanted into the right shoulder of BALB/C nude mice (male, 4-6 weeks), respectively. When the tumors reached to 5 - 8 mm in diameter, the mice were subjected to in vivo and ex vivo studies. All the mice were purchased from the Laboratory Animal Center of Central South University.

[8] = Pharmacokinetics in blood; type: in vivo; settings: healthy BALB/C mouse, i.v. 5.55 MBq, noncompartmental model, Phoenix WinNonlin 8.1
Description: as §1

patients with NSCLC = test: Clinical response to anti-PD-1 therapy in NSCLC patients; type: in vivo, human
Source text: We evaluated the clinical relevance between the expression of PD-L2 in tumor tissues and anti-PD-1 immunotherapy (pembrolizumab) in 49 patients with NSCLC, as assessed by PD-L2 IHC score data from these patients. The median age was 60 years (range, 41 to 86 y), male (81.6%). About 57.1% of the patients had distant metastasis (M1 stage), and 42.9% of the patients had received ≥2 other treatment before anti-PD-1 therapy (Table). […] patients were classified as PD-L1-positive expression, […] as PD-L2-positive expression, 21 (42.9%) as PD-L1 negative, and 27 (55.1%) as PD-L2 negative (Fig. 1A). […] (Fig. 1A). […] (Fig. 1A). In the 49 patients, PD-L2-positive was identified as a statistically significant predictor of better PFS (P < 0.05) (Fig. 1B), but it was not a statistically significant predictor of relapse-free survival (Fig. 1C).

## OC[C@H]1O[C@@H](O)[C@H]([18F])[C@@H](O)[C@@H]1O [[^18F]F-FDG]
[1]
  effective dose: 1.9 × 10^−2 mSv/MBq
[2]; patient 1, NSCLC, lung
  FDG SUVmax: 15.5
[2]; patient 2, NSCLC, lung
  FDG SUVmax: 25.9
[2]; patient 3, rHNSCC, buccal
  FDG SUVmax: 13.7
[2]; patient 4, rHNSCC, buccal
  FDG SUVmax: 4.0
[2]; patient 5, mHNSCC, tongue
  FDG SUVmax: 4.0
[2]; patient 6, mHNSCC, laryngeal
  FDG SUVmax: 3.7

## CC[C@H](C)[C@H](NC(=O)[C@H](CCCNC(=N)N)NC(=O)[C@H](C)NC(=O)[C@H](CCCCN)NC(=O)[C@@H](NC(=O)[C@H](CCCNC(=N)N)NC(=O)[C@H](CCCNC(=N)N)NC(=O)[C@@H](NC(=O)[C@H](Cc1c[nH]cn1)NC(=O)COCCOCCOCCNC(=O)CN1CCN(CC(=O)O)CCN(CC(=O)O)CC1)C(C)C)[C@@H](C)O)C(=O)N[C@@H](CCCNC(=N)N)C(=O)N[C@@H](CC(N)=O)C(=O)O [[^68Ga]Ga-HN11-2, metal not drawn] ({NOTA-AEEEA}-HVRRTKARIRN-OH)
[3]
  tumor uptake after blocking: 0.82 ± 0.04 %ID/g
A549-PD-L2 cell lines; 30 min incubation, γ-counter
  cell uptake rate: 1.55 ± 0.08%
A549-PD-L2 cell lines; 60 min, with excess (10 μg) of cold HN11-1 / HN11-2 precursor
  cell uptake, block group: 0.61 ± 0.03%
A549-PD-L2 cell lines; 60 min incubation
  cell uptake rate: 2.47 ± 0.13%
[4]
  in vitro stability in saline (radiochemical purity): > 95%
[5]
  remaining at 4 h: > 95%
[6]
  logD: -0.27 ± 0.0018
[7]; 10 min after injection
  tumor uptake: 1.71 ± 0.14 %ID/g
[7]; 20 min after injection
  tumor uptake: 2.17 ± 0.12 %ID/g
[7]; 30 min after injection
  tumor uptake: 2.29 ± 0.17 %ID/g
[7]; 40 min after injection
  tumor uptake: 2.10 ± 0.03 %ID/g
[7]; 50 min after injection
  tumor uptake: 1.97 ± 0.07 %ID/g
[7]; 60 min after injection
  tumor uptake: 1.82 ± 0.06 %ID/g
[8]
  half-life in blood: 22.66 min

## pembrolizumab: anti-PD-1 immunotherapy
Patients with NSCLC; PD-L1-positive alone, 95% CI 63.4 to 93.8
  response rate: 78.6%
Patients with NSCLC; PD-L1-positive but PD-L2-negative, 95% CI 56.3 to 96.6
  objective response rate: 76.5%
Patients with NSCLC; PD-L1-positive while PD-L2 unknown, 95% CI 63.4 to 93.8
  objective response rate: 78.6%
Patients with NSCLC; PD-L2-positive alone, 95% CI 59.8 to 94.8
  response rate: 77.3%
Patients with NSCLC; both PD-L1- and PD-L2-positive, 95% CI 59.0 to 100.0
  objective response rate: 81.8%
Patients with NSCLC; both PD-L1 and PD-L2 negative group, 95% CI 29.6 to 90.4
  response rate: 60.0%
